The record followed here is US20240002393A1, “SUBSTITUTED BENZO[f][l ,2,4JTRIAZOL0[4,3-a][l ,4J[…] GABA A GAMMA! POSITIVE ALLOSTERIC MODULATORS” (Hoffmann-La Roche Inc., priority 2020, published 2024).

Several values for one entry are separate records, joined by “and”; a condition that tells them apart may be missing. Equal values may be shown once.

The target in assay [1] is human GABAA α1β2γ1 receptor (Homo sapiens (Human), UniProt P14867+Q8N1C3). As to the kind of experiment: Radioligand binding assay, [3H]RO7239181 competition, γ1-containing GABAA subtypes. The settings on record: HEK293F membranes, [3H]RO7239181 20-30 nM, mean of two determinations. Here is the method:
(§1) The affinity of compounds at GABAA γ1 subunit-containing receptors was measured by competition for [^3H]RO7239181 (67.3 Ci/mmol; Roche) binding to membranes from HEK293F cells (ThermoFisher R79007) expressing human (transiently transfected) receptors of composition α5β2γ1, α2β2γ1, α1β2γ1.
(§2) Harvested pellets from HEK293F cells expressing the different GABAA receptor subtypes were resuspended in Mannitol Buffer pH 7.2-7.4 (Mannitol 0.29M, Triethylamine 10 mM, Acetic acid 10 mM, EDTA 1 mM plus protease inhibitors (20 tablets Complete, Roche Diagnostics Cat. No. 05 056 489 001 per liter)), washed two times and then resuspended at 1:10 to 1:15 dilution in the same buffer. Cell disruption was performed by stirring the suspension in a Parr vessel #4637 at 435 psi for 15 minutes, and then the suspensions were centrifuged at 1000×g for 15 minutes at 4° C. (Beckman Avanti J-HC; rotor JS)-4.2). The supernatant (S1) was transferred in a 21 Schott flask and the pellet (P1) was resuspended with Mannitol Buffer up to 175 ml. The resuspended pellet was transferred into a 250 ml Corning centrifugal beaker and centrifuged at 1500×g for 10 minutes at 4° C. (Beckman Avanti J-HC; rotor JS)-4.2). The supernatant (S1) was then transferred in the 21 Schott flask and the pellet was discarded. The supernatants (S1) were centrifuged in 500 ml Beckman polypropylene centrifugal beaker at 15,000×g for 30 minutes at 4° C. (Beckman Avanti J-20 XP; rotor JLA-10.500). The pellet (P2) was resuspended with Mannitol Buffer 1:1 and frozen at −80° C. The supernatant (S2) was centrifuged in 100 ml Beckman polypropylene centrifugal tubes at 48000×g for 50 minutes at […] (Beckman Avanti J-20 XP; rotor JA-18). The supernatant (S3) was discarded and the pellet (P3) was resuspended with 1:1 Mannitol Buffer. The P2 and P3 protein concentration was determined with the BIORAD Standard assay method with bovine serum albumin as standard and measured on the NANO-Drop 1000. The membrane suspension was aliquots (500 μl per tube) and stored at −80° C. until required.
(§3) Membrane homogenates were resuspended and polytronised (Polytron PT1200E Kinematica AG) in Potassium Phosphate 10 mM, KCl 100 mM binding buffer at pH 7.4 to a final assay concentration determined with a previous experiment.
(§4) Assays were incubated to equilibrium for 1 hour at 4° C. and then, membranes were filtered onto unifilter (96-well white microplate with bonded GF/C filters preincubated 20-50 minutes in 0.3% Polyethylenimine) with a Filtermate 196 harvester (Packard BioScience) and washed 4 times with cold Potassium Phosphate 10 mM pH 7.4, KCl 100 mM binding buffer. After drying, filter-retained radioactivity was detected by liquid scintillation counting. K, values were calculated using Excel-Fit (Microsoft) and are the means of two determinations.

Assay [2] deals with human GABAA α2β2γ1 receptor (Homo sapiens (Human), UniProt P47869+Q8N1C3). The description is as above. The settings on record: for Ki: HEK293F membranes, [3H]RO7239181 20-30 nM, mean of two determinations, read-out: Ki h-GABAA α2β2γ1; for γ2/γ1 Selectivity Ratio: Ki α1β3γ2 (nM)/Ki α2β2γ1 (nM); for LogSel: Log[Ki α1β3γ2 (nM)/Ki α2β2γ1 (nM)]. Here is the method:
as §1, §2, §3, §4

Assay [3] deals with human GABAA α1β3γ2 receptor (Homo sapiens (Human), UniProt P14867+P18507). Kind of assay: Radioligand binding assay, [3H]Flumazenil competition, γ2-containing GABAA subtypes. Particulars: HEK293F membranes, [3H]Flumazenil 1 nM, mean of two determinations; read-out: Ki h-GABAA α1β3γ2. Here is the method: The affinity of compounds at GABAA γ2 subunit-containing receptors was measured by competition for [^3H]Flumazenil (81.1 Ci/mmol; Roche) binding to HEK293F cells expressing human (transiently transfected) receptors of composition α1β3γ2.
Harvested pellets from HEK293F cells expressing the different GABAA γ2 receptor subtypes were resuspended in Mannitol Buffer pH 7.2-7.4 and processed as described above for the cells expressing the GABAA γ1 subunit-containing receptors.
Assays were incubated to equilibrium for 1 hour at 4° C. and harvested onto GF/C uni-filters (Packard) by filtration using a Packard harvester and washing with ice-cold wash buffer (50 mM Tris; pH 7.5). After drying, filter-retained radioactivity was detected by liquid scintillation counting. Ki values were calculated using Exel-Fit (Microsoft) and are the means of two determinations.

The Ki is the equilibrium dissociation constant of an inhibitor or competing ligand from its target.

For the compound `Cc1ccc2c(c1Cl)C(c1c(F)cccc1F)=N[C@@H](C)c1nnc(C)n1-2` [Example 97, (4S)-7-chloro-6-(2,6-difluorophenyl)-1,4,8-trimethyl-4H-[1,2,4]triazolo[4,3-a][1,4]benzodiazepine], the affinity in assay [1] corresponds to a Ki of 0.0336 µM. In assay [2], the Ki came to 0.0271 µM, the “γ2/γ1 Selectivity Ratio” value came out at 15.7 and the LogSel amounted to 1.19. Moreover, in assay [3], the Ki was 0.425 µM.
Taken in the same sequence, the figures for `C[C@@H]1N=C(c2c(F)cccc2F)c2c(ccc(Cl)c2Br)-n2c(-c3cnn(C)c3)nnc21` [Example 76, (4S)-7-bromo-8-chloro-6-(2,6-difluorophenyl)-4-methyl-1-(1-methylpyrazol-4-yl)-4H-[1,2,4]triazolo[4,3-a][1,4]benzodiazepine] were 0.0446 µM, 0.0249 µM, 21.3, 1.33 and 0.53 µM.
As to `C[C@@H]1N=C(c2ncccc2F)c2c(ccc(Cl)c2Cl)-n2c(C3CC3)nnc21` [Example 68, (4S)-7,8-dichloro-1-cyclopropyl-6-(3-fluoro-2-pyridyl)-4-methyl-4H-[1,2,4]triazolo[4,3-a][1,4]benzodiazepine], the Ki in assay [1] was 0.359 µM; in assay [2] it was 0.0388 µM; in assay [3], 1.06 µM. Moreover, the “γ2/γ1 Selectivity Ratio” value in assay [2] is listed as 27.4. In assay [2], this compound displayed a LogSel of 1.44.
As to `C[C@@H]1N=C(c2c(F)cccc2F)c2c(ccc(Br)c2Cl)-n2cnnc21` [Example 51, (4S)-8-bromo-7-chloro-6-(2,6-difluorophenyl)-4-methyl-4H-[1,2,4]triazolo[4,3-a][1,4]benzodiazepine], the Ki was found to be 0.009 µM in assay [1], 0.0049 µM in assay [2] and 0.393 µM in assay [3]. In addition, in assay [2], the “γ2/γ1 Selectivity Ratio” value is 79.5 and 80. This compound displayed a LogSel in assay [2] of 1.9.
`Cc1nnc2n1-c1ccc(Br)c(Cl)c1C(c1c(F)cccc1F)=N[C@H]2C` [Example 75, (4S)-8-bromo-7-chloro-6-(2,6-difluorophenyl)-1,4-dimethyl-4H-[1,2,4]triazolo[4,3-a][1,4]benzodiazepine]: the inhibition constant (Ki) was found to be 0.0083 µM in assay [1], 0.0053 µM in assay [2] and 0.202 µM in assay [3]. Moreover, in assay [2], the “γ2/γ1 Selectivity Ratio” value was determined as 38.0. The compound also showed a LogSel in assay [2] of 1.58.
The matching figures for `OC1N=C(c2ccccc2F)c2c(ccc(Br)c2Cl)-n2c(-c3cccnn3)nnc21` (centres unmarked) [Example 35, 8-bromo-7-chloro-6-(2-fluorophenyl)-1-pyridazin-3-yl-4H-[1,2,4]triazolo[4,3-a][1,4]benzodiazepin-4-ol]: 0.64 µM, 0.0786 µM, 2.8 µM, 35.7 and 1.55.
`Cc1nnc2n1-c1ccc(Cl)c(Br)c1C(c1c(F)cccc1F)=N[C@H]2C` [Example 80, (4S)-7-bromo-8-chloro-6-(2,6-difluorophenyl)-1,4-dimethyl-4H-[1,2,4]triazolo[4,3-a][1,4]benzodiazepine]: the Ki in assay [1] stood at 0.0426 µM. In addition, in assay [2], the Ki amounted to 0.0236 µM, the “γ2/γ1 Selectivity Ratio” value came to 45.3 and the LogSel was 1.66. Moreover, the Ki in assay [3] came to 1.07 µM.
Compound `Cc1nccc(-c2nnc3n2-c2ccc(Cl)c(Cl)c2C(c2c(F)cccc2F)=N[C@H]3C)n1` [Example 95, (4S)-7,8-dichloro-6-(2,6-difluorophenyl)-4-methyl-1-(2-methylpyrimidin-4-yl)-4H-[1,2,4]triazolo[4,3-a][1,4]benzodiazepine] had a Ki in assay [1] of 0.0247 µM. For the same compound, in assay [2], the inhibition constant (Ki) turned out to be 0.0142 µM, the “γ2/γ1 Selectivity Ratio” value was found to be 32.7 and the LogSel is recorded as 1.51. Further, the Ki in assay [3] stood at 0.466 µM.
Taken in the same sequence, the figures for `Cc1cc(-c2nnc3n2-c2ccc(Cl)c(Cl)c2C(c2c(F)cccc2F)=N[C@H]3C)ncn1` [Example 94, (4S)-7,8-dichloro-6-(2,6-difluorophenyl)-4-methyl-1-(6-methylpyrimidin-4-yl)-4H-[1,2,4]triazolo[4,3-a][1,4]benzodiazepine] were 0.0103 µM, 0.008 µM, 76.4, 1.88 and 0.609 µM.
Regarding `COC[C@@H]1N=C(c2c(F)cccc2F)c2c(ccc(C(F)(F)F)c2Cl)-n2c(C)nnc21` [Example 105, (4R)-7-chloro-6-(2,6-difluorophenyl)-4-(methoxymethyl)-1-methyl-8-(trifluoromethyl)-4H-[1,2,4]triazolo[4,3-a][1,4]benzodiazepine], in assay [2], the Ki stood at 0.0993 µM, the “γ2/γ1 Selectivity Ratio” value came out at 73.9 and the LogSel is 1.87. Also, the Ki in assay [3] came to 7.34 µM.
Compound `C[C@@H]1N=C(c2c(F)cccc2F)c2c(ccc(Cl)c2Br)-n2c(-c3ccn(C)n3)nnc21` [Example 81, (4S)-7-bromo-8-chloro-6-(2,6-difluorophenyl)-4-methyl-1-(1-methylpyrazol-3-yl)-4H-[1,2,4]triazolo[4,3-a][1,4]benzodiazepine] gave a Ki in assay [1] of 0.101 µM. Further, in assay [2], the Ki came to 0.0363 µM, the “γ2/γ1 Selectivity Ratio” value turned out to be 43.0 and the LogSel was 1.63. For the same compound, in assay [3], the Ki amounted to 1.56 µM.
Taken in the same sequence, the figures for `C[C@@H]1N=C(c2c(F)cccc2F)c2c(ccc(Cl)c2Br)-n2c1n[nH]c2=O` [Example 89, (4S)-7-bromo-8-chloro-6-(2,6-difluorophenyl)-4-methyl-2,4-dihydro-[1,2,4]triazolo[4,3-a][1,4]benzodiazepin-1-one] were 0.106 µM, 0.077 µM, 19.0, 1.28 and 1.46 µM.
In the case of `C[C@@H]1N=C(c2c(F)cccc2F)c2c(ccc(C(F)(F)F)c2Cl)-n2cnnc21` [Example 107, (4S)-7-chloro-6-(2,6-difluorophenyl)-4-methyl-8-(trifluoromethyl)-4H-[1,2,4]triazolo[4,3-a][1,4]benzodiazepine], in assay [2], the Ki turned out to be 0.0683 µM, the “γ2/γ1 Selectivity Ratio” value is 51.8 and the LogSel amounted to 1.71. For the same compound, the Ki in assay [3] turned out to be 3.53 µM.
In the case of `CCc1ccc2c(c1Cl)C(c1c(F)cccc1F)=N[C@@H](C)c1nnc(C)n1-2` [Example 109, (4S)-7-chloro-6-(2,6-difluorophenyl)-8-ethyl-1,4-dimethyl-4H-[1,2,4]triazolo[4,3-a][1,4]benzodiazepine], in assay [2], the Ki is 0.0658 µM, the “γ2/γ1 Selectivity Ratio” value is recorded as 11.5 and the LogSel is 1.06. The Ki in assay [3] was 0.754 µM.
With `Cc1nnc2n1-c1ccc(C(F)(F)F)c(Cl)c1C(c1c(F)cccc1F)=N[C@H]2CO` [Example 106, [(4R)-7-chloro-6-(2,6-difluorophenyl)-1-methyl-8-(trifluoromethyl)-4H-[1,2,4]triazlo[4,3-a][1,4]benzodiazepin-4-yl]methanol], in assay [2], the inhibition constant (Ki) is 0.0713 µM, the “γ2/γ1 Selectivity Ratio” value worked out at 107.1 and the LogSel turned out to be 2.03. Besides, the Ki in assay [3] was determined as 7.64 µM.
